Format in all cases: physicochemical
Series [1] in a line: Supersaturation / desupersaturation of DMSO solution in FaSSIF-V1. The following applies: FaSSIF-V1, 37° C. As for the experimental part:
FIG. 1 is a an illustration of Compound (I) desupersaturation profiles in FaSSIF-V1 when added as DMSO solution at drug loads from 100 to 2000 ppmw
The supersaturation potential of Compound (1) was studied by mixing drug dissolved in 1 mL DMSO into 99 mL FaSSIF-V1 stirred at 37° C. (FIG. 1). At higher drug loads of 500, 1000 or 2000 ppmw (or […]) Compound (1) precipitated practically instantaneously and attained a constant steady state concentration of approx. 20 μg/mL or below within 5 minutes.. At the 90 min final sampling the solids were confirmed to be crystalline Compound (1) by XRPD. At lower drug loads, supersaturation was maintained longer, e.g. approx. 110 μg/mL drug dissolved at 5 min at 200 ppmw drug load and approx. 70 μg/mL drug dissolved till 20 min at 100 ppmw drug load. Situation after desupersaturation was similar as described for higher drug loads.

Series [2] in a line: Hot melt extrusion (HME) thermal stability. The note with it: extrusion of compound-polymer mixture at temperatures in excess of 160° C. From the text:
A holt melt extrusion (HME) approach was also attempted.

Series [3] is described as follows: Initial stability evaluation of lyophilized solid dispersions (mDSC, UPLC). The note with it: initial purity of Compound (I) 99.3%. As for the experimental part:
The following example illustrates the initial feasibility assessment of an amorphous solid dispersion formulation. An amorphous solid dispersion (ASD) was initially evaluated as a potential formulation for Compound (1). Solid dispersion screening was performed by lyophilization of solid Compound (1) with a polymer. Miscibility trials of Compound (1) were performed with Kollidon® VA64, HPMC-AS-LF, Eudragit® L100-55, and HPMC 603, by conducting a DSC measurement of the lyophilized material to determine if the material was amorphous or crystalline. […] Kollidon® VA64 at both 50% and 40% drug loading recrystallized after 5 weeks. HPMC-AS-LF and Eudragit® L100-55 remained amorphous under stressed conditions. However, HPMC-AS-LF and Eudragit® L100-55 both have significant impurities after 5 weeks until stressed conditions, according to UPLC analysis.

As for `O=C1CC2(CCN(C(=O)NCc3ccc(F)cc3)CC2)Nc2ccc(F)cc21` [Compound (I), 6′-fluoro-N-(4-fluorobenzyl)-4′-oxo-3′,4′-dihydro-1′H-spiro[piperidine-4,2′-quinoline]-1-carboxamide], the figures for the drug dissolved entry in series [1] (at 5 min at 200 ppmw drug load) and in series [1] (till 20 min at 100 ppmw drug load) were “approx. 110 μg/mL” and “approx. 70 μg/mL”, respectively. Also, the steady state concentration in series [1] (drug loads of 500, 1000 or 2000 ppmw, within 5 minutes) was no more than 20 µg/mL. In addition, in series [1] (overall), the supersaturation potential result is reported as “rather poorly supersaturating”. In series [2], the “stability on hot melt extrusion” value was “thermal degradation”. For the same molecule, the “UPLC (%)” value in series [3] (3 weeks 50° C./75% RH) stood at 99.09%; in series [3] (5 weeks 50° C./75% RH), 99.05%.

These data come from patent publication US20250352537A1, “PHARMACEUTICAL COMPOSITIONS OF TRICYCLIC AKR1C3 DEPENDENT KARS INHIBITOR AND METHODS FOR MAKING SAME” (NOVARTIS AG, priority 2022, published 2025).
